In patent US9540377B2, “2,6,7,8 substituted purines as HDM2 inhibitors” (Merck Sharp & Dohme Corp., priority 2013, dated 2017):
pIC50: −log10 of the molar value.

What follows are molecules tested against HDM2 (truncated, residues 17 to 125, containing p53 binding surface) (Homo sapiens (Human), UniProt Q00987) (assay: HDM2 FRET assay (inhibition of binding of FITC labeled p53-site peptide to HDM2)). Details: Table 16.
Description: IC50 DETERMINATIONS: Dose-response curves were plotted from the inhibition data, from 10 point serial dilutions of inhibitory compounds. Concentration of compound was plotted against em520/Cem495 ratio signal. To generate IC50 values, the dose-response curves were fitted to a standard sigmoidal curve and IC50 values were derived by nonlinear regression analysis.

Sequence of HDM2 (truncated, residues 17 to 125, containing p53 binding surface) (Q00987 17-125): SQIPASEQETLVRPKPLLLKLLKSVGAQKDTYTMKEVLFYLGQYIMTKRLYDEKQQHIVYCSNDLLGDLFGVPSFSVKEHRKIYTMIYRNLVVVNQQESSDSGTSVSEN

Row | SMILES | pIC50
1 | Cc1noc(C2CCCN2c2nc3nc(-c4noc(=O)[nH]4)nc(-c4cncc(Cl)c4)c3n2C[C@H]2CC[C@H](C)CC2)n1 (mixture of isomers) [Example 16.143, 3-{6-(5-chloropyridin-3-yl)-7-[(trans-4-methylcyclohexyl)methyl]-8-[2-(3-methyl-1,2,4-oxadiazol-5-yl)pyrrolidin-1-yl]-7H-purin-2-yl}-1,2,4-oxadiazol-5(4H)-one] | 8.83
2 | C[C@H]1CC[C@H](Cn2c(N3CCCC4COCCC43)nc3nc(-c4n[nH]c(=O)o4)nc(-c4cncc(Cl)c4)c32)CC1 (single isomer, unassigned) [Example 16.123, 5-{6-(5-chloropyridin-3-yl)-8-(hexahydro-2H-pyrano[4,3-b]pyridin-1(5H)-yl)-7-[(trans-4-methylcyclohexyl)methyl]-7H-purin-2-yl}-1,3,4-oxadiazol-2(3H)-one] | 7.23
3 | Cc1noc(C2CCCN2c2nc3nc(C(=O)O)nc(-c4cncc(Cl)c4)c3n2C[C@H]2CC[C@H](C)CC2)n1 (mixture of isomers) [Example 16.145, 6-(5-chloropyridin-3-yl)-7-[(trans-4-methylcyclohexyl)methyl]-8-[2-(3-methyl-1,2,4-oxadiazol-5-yl)pyrrolidin-1-yl]-7H-purine-2-carboxylic acid] | 8.41
4 | CO[C@@H]1CCN(c2nc3nc(-c4n[nH]c(=O)o4)nc(-c4cncc(Cl)c4)c3n2C[C@H]2CC[C@H](C)CC2)[C@@H](C)C1 (racemic) [Example 16.155, 5-{6-(5-chloropyridin-3-yl)-8-[(trans)-4-methoxy-2-methylpiperidin-1-yl]-7-[(trans-4-methylcyclohexyl)methyl]-7H-purin-2-yl}-1,3,4-oxadiazol-2(3H)-one] | 7.31
5 | COC(C)(C)C1CCCN1c1nc2nc(-c3n[nH]c(=O)o3)nc(-c3cccc(Cl)c3)c2n1C[C@H]1CC[C@H](C)CC1 (single isomer, unassigned) [Example 16.70, 5-{6-(3-chlorophenyl)-8-[2-(1-methoxy-1-methylethyl)pyrrolidin-1-yl]-7-[(trans-4-methylcyclohexyl)methyl]-7H-purin-2-yl}-1,3,4-oxadiazol-2(3H)-one] | 8.64

Same assay, conditions: Table 18

Row | SMILES | pIC50
6 | CC([C@H]1CC[C@H](C)CC1)n1c(N2CCOC3CCCC32)nc2nc(-c3noc(=O)[nH]3)nc(-c3cccc(Cl)c3)c21 (single isomer, unassigned) [Example 18.37, 3-{6-(3-chlorophenyl)-8-(hexahydrocyclopenta[b][1,4]oxazin-4(4aH)-yl)-7-[1-(trans-4-methylcyclohexyl)ethyl]-7H-purin-2-yl}-1,2,4-oxadiazol-5(4H)-one] | 8.65
7 | CC(C)c1ccnc(-c2nc3nc(-c4noc(=O)[nH]4)nc(N[C@H](C)C4CCC4)c3n2C[C@@H]2CC[C@@H](C)C(F)(F)C2)c1 (stereo in doubt) [Example 18.11, 3-(6-(((R)-1-cyclobutylethyl)amino)-7-((trans-3,3-difluoro-4-methylcyclohexyl)methyl)-8-(4-isopropylpyridin-2-yl)-7H-purin-2-yl)-1,2,4-oxadiazol-5(4H)-one] | 8.55
8 | CC([C@H]1CC[C@H](C)CC1)n1c(N2CCOC3CCCC32)nc2nc(-c3noc(=O)[nH]3)nc(-c3cccc(Cl)c3)c21 (single isomer, unassigned) [Example 18.40, 3-{6-(3-chlorophenyl)-8-(hexahydrocyclopenta[b][1,4]oxazin-4(4aH)-yl)-7-[1-(trans-4-methylcyclohexyl)ethyl]-7H-purin-2-yl}-1,2,4-oxadiazol-5(4H)-one] | 8.10

Same assay, conditions: Table 23

Row | SMILES | pIC50
9 | CC(F)(c1c(F)cccc1F)c1nc2nc(-c3noc(=O)[nH]3)nc(-c3cncc(Cl)c3)c2n1C[C@H]1CC[C@H](C)CC1 (single isomer, unassigned) [Example 23.68, 3-{6-(5-chloropyridin-3-yl)-8-[1-(2,6-difluorophenyl)-1-fluoroethyl]-7-[(trans-4-methylcyclohexyl)methyl]-7H-purin-2-yl}-1,2,4-oxadiazol-5(4H)-one] | 8.37
10 | CC(F)(c1ccccn1)c1nc2nc(-c3noc(=O)[nH]3)nc(-c3cccc(Cl)c3)c2n1C[C@H]1CC[C@H](C)CC1 (single isomer, unassigned) [Example 23.31, 3-{6-(3-chlorophenyl)-8-(1-fluoro-1-pyridin-2-ylethyl)-7-[(trans-4-methylcyclohexyl)methyl]-7H-purin-2-yl}-1,2,4-oxadiazol-5(4H)-one] | 8.43
11 | COC(C)(c1ccccn1)c1nc2nc(-c3n[nH]c(=O)o3)nc(-c3cccc(Cl)c3)c2n1C[C@H]1CC[C@H](C)CC1 (single isomer, unassigned) [Example 23.54, 5-{6-(3-chlorophenyl)-8-(1-methoxy-1-pyridin-2-ylethyl)-7-[(trans-4-methylcyclohexyl)methyl]-7H-purin-2-yl}-1,3,4-oxadiazol-2(3H)-one] | 7.87
12 | COC(C)(c1c(F)cccc1F)c1nc2nc(-c3n[nH]c(=O)o3)nc(-c3cncc(Cl)c3)c2n1C[C@H]1CC[C@H](C)CC1 (single isomer, unassigned) [Example 23.89, 5-{6-(5-chloropyridin-3-yl)-8-[1-(2,6-difluorophenyl)-1-methoxyethyl]-7-[(trans-4-methylcyclohexyl)methyl]-7H-purin-2-yl}-1,3,4-oxadiazol-2(3H)-one] | 8.29
13 | COC(C)(c1ccccn1)c1nc2nc(-c3n[nH]c(=O)o3)nc(-c3cccc(Cl)c3)c2n1C[C@H]1CC[C@H](C)CC1 (single isomer, unassigned) [Example 23.55, 5-{6-(3-chlorophenyl)-8-(1-methoxy-1-pyridin-2-ylethyl)-7-[(trans-4-methylcyclohexyl)methyl]-7H-purin-2-yl}-1,3,4-oxadiazol-2(3H)-one] | 8.37
14 | C[C@H]1CC[C@H](Cn2c(C(F)C3CCCCC3)nc3nc(-c4noc(=O)[nH]4)nc(-c4cccc(Cl)c4)c32)CC1 (mixture of isomers) [Example 23.29, 3-{6-(3-chlorophenyl)-8-[cyclohexyl(fluoro)methyl]-7-[(trans-4-methylcyclohexyl)methyl]-7H-purin-2-yl}-1,2,4-oxadiazol-5(4H)-one] | 7.46
15 | COc1ccccc1C(C)(OC)c1nc2nc(-c3n[nH]c(=O)o3)nc(-c3cncc(Cl)c3)c2n1C[C@H]1CC[C@H](C)CC1 (mixture of isomers) [Example 23.78, 5-{6-(5-chloropyridin-3-yl)-8-[1-methoxy-1-(2-methoxyphenyl)ethyl]-7-[(trans-4-methylcyclohexyl)methyl]-7H-purin-2-yl}-1,3,4-oxadiazol-2(3H)-one] | 8.09
16 | COc1ccccc1C(C)(F)c1nc2nc(-c3noc(=O)[nH]3)nc(-c3cncc(Cl)c3)c2n1C[C@H]1CC[C@H](C)CC1 (single isomer, unassigned) [Example 23.26, 3-{6-(5-chloropyridin-3-yl)-8-[1-fluoro-1-(2-methoxyphenyl)ethyl]-7-[(trans-4-methylcyclohexyl)methyl]-7H-purin-2-yl}-1,2,4-oxadiazol-5(4H)-one] | 8.27
17 | COC(C)(c1nc2nc(-c3n[nH]c(=O)o3)nc(-c3cncc(Cl)c3)c2n1C[C@H]1CC[C@H](C)CC1)C1CCCC1 (mixture of isomers) [Example 23.72, 5-{6-(5-chloropyridin-3-yl)-8-(1-cyclopentyl-1-methoxyethyl)-7-[(trans-4-methylcyclohexyl)methyl]-7H-purin-2-yl}-1,3,4-oxadiazol-2(3H)-one] | 8.59
18 | COC(c1nc2nc(-c3n[nH]c(=O)o3)nc(-c3cncc(Cl)c3)c2n1C[C@H]1CC[C@H](C)CC1)C1CCOCC1 (mixture of isomers) [Example 23.20, 5-{6-(5-chloropyridin-3-yl)-8-[methoxy(tetrahydro-2H-pyran-4-yl)methyl]-7-[(trans-4-methylcyclohexyl)methyl]-7H-purin-2-yl}-1,3,4-oxadiazol-2(3H)-one] | 7.56
19 | COC(c1nc2nc(-c3n[nH]c(=O)o3)nc(-c3cccc(Cl)c3)c2n1C[C@H]1CC[C@H](C)CC1)C1CCOCC1 (mixture of isomers) [Example 23.16, 5-{6-(3-chlorophenyl)-8-[methoxy(tetrahydro-2H-pyran-4-yl)methyl]-7-[(trans-4-methylcyclohexyl)methyl]-7H-purin-2-yl}-1,3,4-oxadiazol-2(3H)-one] | 7.91
20 | CC(F)(c1ccccc1F)c1nc2nc(-c3n[nH]c(=O)o3)nc(-c3cncc(Cl)c3)c2n1C[C@H]1CC[C@H](C)CC1 (single isomer, unassigned) [Example 23.33, 5-{6-(5-chloropyridin-3-yl)-8-[1-fluoro-1-(2-fluorophenyl)ethyl]-7-[{trans-4-methylcyclohexyl)methyl]-7H-purin-2-yl}-1,3,4-oxadiazol-2(3H)-one] | 9.34
21 | CC(O)(c1nc2nc(-c3noc(=O)[nH]3)nc(-c3cccc(Cl)c3)c2n1C[C@H]1CC[C@H](C)CC1)C1CCCCC1 (mixture of isomers) [Example 23.10, 3-{6-(3-chlorophenyl)-8-(1-cyclohexyl-1-hydroxyethyl)-7-[(trans-4-methylcyclohexyl)methyl]-7H-purin-2-yl}-1,2,4-oxadiazol-5(4H)-one] | 7.81
22 | COC(C)(c1cccc(Cl)c1F)c1nc2nc(-c3n[nH]c(=O)o3)nc(-c3cncc(Cl)c3)c2n1C[C@H]1CC[C@H](C)CC1 (single isomer, unassigned) [Example 23.74, 5-{8-[1-(3-chloro-2-fluorophenyl)-1-methoxyethyl]-6-(5-chloropyridin-3-yl)-7-[(trans-4-methylcyclohexyl)methyl]-7H-purin-2-yl}-1,3,4-oxadiazol-2(3H)-one] | 7.75
23 | CC(F)(c1c(F)cccc1F)c1nc2nc(-c3noc(=O)[nH]3)nc(-c3cncc(Cl)c3)c2n1C[C@H]1CC[C@H](C)CC1 (single isomer, unassigned) [Example 23.69, 3-{6-(5-chloropyridin-3-yl)-8-[1-(2,6-difluorophenyl)-1-fluoroethyl]-7-[(trans-4-methylcyclohexyl)methyl]-7H-purin-2-yl}-1,2,4-oxadiazol-5(4H)-one] | 9.81
